In patent US20060258630A1, “Method for the prevention and treatment of uveitis” (BioXell S.p.A., priority 2003, published 2006):
Entries after “also recorded” stand apart in the source; their conditions may differ.

What was measured:
[1] = tested on: IFN-γ production in allogeneic PBMC co-culture (MLR); assay: IFN-γ production by allogeneic T cell activation in the mixed leukocyte response (MLR), ELISA; type: cell-based; conditions: 120 h, 5 days, read-out: INF-γ IC50
Protocol: Immature dendritic cells. (DC) were prepared as described in Romani, N. et al. (Romani, N. et al. (1996) J. Immunol. Meth. 196:137). IFN-γ production by allogeneic T cell activation in the mixed leukocyte response (MLR) was determined as described in Penna, G., et al., J Immunol., 164: 2405-2411 (2000).
Briefly, peripheral blood mononuclear cells (PBMC) were separated from buffy coats by Ficoll gradient and the same number (3×10^5) of allogeneic PBMC from 2 different donors were co-cultured in 96-well flat-bottom plates. The vitamin D3 compounds were added to each of the cultures.

[2] = tested on: primed lymph node cells (LN); assay: In vitro assay of primed lymph node cells (LN) from EAU mice: proliferation, polarization, cytokine and chemokine release; type: cell-based; conditions: for Inhibition of specific T cell proliferation and T cell polarization: primed lymph node cells, FIG. 4
From the text: It can be concluded that delayed hypersensitivity to IRBP in treated mice is correlated with disease severity. […] Preventive treatment remarkably diminished both IFN-gamma and IL-17 production by LN.
In consistency with disease amelioration, Ag driven chemokine release, such as MIP-1a, Rantes and TARC, is inhibited by Vitamin D3 derivatives as shown in FIG. 5. The further mechanism(s) involved in inhibition of EAU by VDR agonists are being investigated.

[3] = tested on: EAU-susceptible B10.RIII mice; assay: Experimental autoimmune uveoretinitis (EAU) induced with IRBP in CFA; type: in vivo; conditions: for Prevention of EAU: administered from day −6 to 2
From the text: EAU an autoimmune disease mediated by Th1-type uveitogenic CD4+ T cells serves as a model for human posterior uveitis. […] EAU development was followed by funduscopy and confirmed by histopathology on eyes collected 21 days after immunization.

[4] = Determination of maximum tolerated dose (MTD), serum calcium / hypercalcemia; conditions: female, C57BL/6, mouse, serum, po
Protocol: (§1) The maximum tolerated dose of the vitamin D3 compounds of the invention were determined in eight week-old female C57BL/6 mice (3 mice/group) dosed orally (0.1 ml/mouse) with various concentrations of Vitamin D3 analogs daily for four days. Analogs were formulated in miglyol for a final concentration of 0.01, 0.03, 0.1 0.3, 1, 3, 10, 30, 100 and 300 μg/kg when given at 0.1 ml/mouse p.o. daily. Blood for serum calcium assay was drawn by tail bleed on day five, the final day of the study.

female C57BL/6 mice = assay: as above; conditions: for MTD compared with the corresponding parent dihydroxy compound: (2) vs (1), (4) and (5) vs (3); for MTD (mice): oral daily for four days, highest dose without hypercalcemia (serum calcium>10.7 mg/dl)
Protocol: as §1

Question: With `C=C1/C(=C\C=C2/CCC[C@]3(C)[C@@H]([C@H](C)CCCC(C)(C)O)CC[C@@H]23)C[C@@H](O)C[C@@H]1O` [1,25(OH)2D3, calcitriol, reference compound] as the molecule, how does the IC50 [1] read?
Answer: Its IC50 is 0.022 nM.

Question: What about the “Inhibition of specific T cell proliferation and T cell polarization” value [2] of the same molecule?
Answer: The value was “potent”.

Question: What about the “Prevention of EAU” value ([3]; calcitriol 0.5 μg/kg orally) of the same molecule?
Answer: Its value is “can prevent EAU; also recorded: effectively prevents EAU”.

Question: What about the MTD at 4 days [4] of the same molecule?
Answer: The MTD at 4 days was 1 µg/kg.

Question: For `CC(=O)OC1C/C(=C/C=C2\CCC[C@]3(C)C(C(C)C/C=C\C(O)(C(F)(F)F)C(F)(F)F)=CCC23)C[C@@H](OC(C)=O)C1` (stereo partly drawn) [(2), 1,3-Di-O-acetyl-1,25-dihydroxy-16,23Z-diene-26,27-hexafluoro-19-nor-cholecalciferol], which “MTD compared with the corresponding parent dihydroxy compound” value (female C57BL/6 mice) is on record?
Answer: Its value is “significantly higher”.

Question: For `CC(CC#CC(O)(C(F)(F)F)C(F)(F)F)C1=CCC2C(=CC=C3CC(O)CC(O)C3)CCCC12C` (stereo not drawn) [(3), 1,25-dihydroxy-16-ene-23-yne-26,27-hexafluoro-19-nor-cholecalciferol, reference compound], which “MTD (mice)” value (female C57BL/6 mice) is on record?
Answer: The value was 0.3 µg/kg.

Question: Which “MTD compared with the corresponding parent dihydroxy compound” value (female C57BL/6 mice) does the source give for `CC(=O)OC1C/C(=C/C=C2\CCC[C@]3(C)C(C(C)CC#CC(O)(C(F)(F)F)C(F)(F)F)=CCC23)C[C@@H](OC(C)=O)C1` (stereo partly drawn) [(4), 1,3-Di-O-acetyl-1,25-Dihydroxy-16-ene-23-yne-26,27-hexafluoro-19-nor-cholecalciferol] here?
Answer: The value was “considerably-greater; also recorded: significantly higher”.

Question: And the “MTD (mice)” value (female C57BL/6 mice)?
Answer: The value was 10 µg/kg.

Question: Which results are given for `CC(=O)OC1C/C(=C/C=C2\CCC[C@]3(C)C(C(C)CC#CC(OC(C)=O)(C(F)(F)F)C(F)(F)F)=CCC23)C[C@@H](OC(C)=O)C1` (stereo partly drawn) [(5), 1,3,25-Tri-O-acetyl-1,25-Dihydroxy-16-ene-23-yne-26,27-hexafluoro-19-nor-cholecalciferol]?
Answer: MTD compared with the corresponding parent dihydroxy compound (female C57BL/6 mice): considerably-greater; also recorded: significantly higher; MTD (mice) (female C57BL/6 mice): 3 µg/kg

Question: For `C=C1/C(=C\C=C2/CCC[C@]3(C)C(C(C)CC#CC(C)(C)O)=CCC23)CC(OC(C)=O)C[C@@H]1OC(C)=O` (stereo partly drawn) [(7), 1,3-Di-O-acetyl-1,25-dihydroxy-16-ene-23-yne-cholecalciferol], which “MTD (mice)” value (female C57BL/6 mice) is on record?
Answer: Its value is 10 µg/kg.

Question: For `C=C1/C(=C\C=C2/CCC[C@]3(C)C(C(C)C/C=C/C(C)(C)O)=CCC23)CC(OC(C)=O)C[C@@H]1OC(C)=O` (stereo partly drawn) [(9), 1,3-Di-O-acetyl-1,25-dihydroxy-16,23E-diene-cholecalciferol], which IC50 [1] is on record?
Answer: The IC50 was 0.013 nM.

Question: What about the MTD at 4 days [4] of the same molecule?
Answer: Its MTD at 4 days is 3 µg/kg.

Question: Which IC50 [1] does the source give for `C=C1/C(=C\C=C2/CCC[C@]3(C)C(C(C)CCCC(C)(C)O)=CCC23)CC(OC(C)=O)C[C@@H]1OC(C)=O` (stereo partly drawn) [(11), 1,3-Di-O-acetyl-1,25-dihydroxy-16-ene-cholecalciferol] here?
Answer: The IC50 was 0.036 nM.

Question: And the MTD at 4 days [4]?
Answer: Its MTD at 4 days is 1 µg/kg.

Question: With `C=C1/C(=C\C=C2/CCC[C@]3(C)C(C(C)CC#CC(OC(C)=O)(C(F)(F)F)C(F)(F)F)=CCC23)CC(OC(C)=O)C[C@@H]1OC(C)=O` (stereo partly drawn) [(13), 1,3,25-Tri-O-acetyl-1,25-dihydroxy-16-ene-23-yne-26,27-hexafluoro-cholecalciferol] as the molecule, how does the “MTD (mice)” value (female C57BL/6 mice) read?
Answer: The value was 3 µg/kg.

Question: With `C=C1/C(=C\C=C2/CCC[C@]3(C)C(C(C)CC#CC(O)(C(F)(F)F)C(F)(F)F)=CCC23)CC(OC(C)=O)C[C@@H]1OC(C)=O` (stereo partly drawn) [(14), 1,3-Di-O-acetyl-1,25-dihydroxy-16-ene-23-yne-26,27-hexafluoro-cholecalciferol] as the molecule, how does the “MTD (mice)” value (female C57BL/6 mice) read?
Answer: The value was 10 µg/kg.

Question: What does the source list for `C=C1/C(=C\C=C2/CCC[C@]3(C)C(C(C)C/C=C/[C@@](C)(O)C(F)(F)F)=CCC23)CC(OC(C)=O)C[C@@H]1OC(C)=O` (stereo partly drawn) [(16), 1,3-Di-O-acetyl-1,25-dihydroxy-16,23E-diene-25R,26-trifluoro-cholecalciferol]?
Answer: IC50 [1]: 0.0513 nM; MTD at 4 days [4]: 0.3 µg/kg

Question: For `CC(=O)OC1C/C(=C/C=C2\CCC[C@]3(C)C(C(C)CCCC(C)(C)O)=CCC23)C[C@@H](OC(C)=O)C1` (stereo partly drawn) [(18), 1,3-Di-O-acetyl-1,25-dihydroxy-16-ene-19-nor-cholecalciferol], which IC50 [1] is on record?
Answer: The IC50 was 0.003 nM.

Question: And the MTD at 4 days [4]?
Answer: Its MTD at 4 days is 3 µg/kg.

Question: What does the source list for `CC(=O)OC1C/C(=C/C=C2\CCC[C@]3(C)C(C(C)CC#CC(C)(C)O)=CCC23)C[C@@H](OC(C)=O)C1` (stereo partly drawn) [(20), 1,3-Di-O-Acetyl-1,25-dihydroxy-16-ene-23-yne-19-nor-cholecalciferol]?
Answer: IC50 [1]: 0.025 nM; MTD at 4 days [4]: 30 µg/kg

Question: For `CCC(O)(C#CCC(C)C1=CCC2/C(=C/C=C3/CC(OC(C)=O)C[C@H](OC(C)=O)C3)CCC[C@]12C)CC` (stereo partly drawn) [(22), 1,3-Di-O-acetyl-1,25-dihydroxy-16-ene-23-yne-26,27-bishomo-19-nor-cholecalciferol], which “MTD (mice)” value (female C57BL/6 mice) is on record?
Answer: The value was 100 µg/kg.

Question: For `CC(=O)OC1C/C(=C/C=C2\CCC[C@@]3(C)C2CCC3C2(CC#CC(C)(C)O)CC2)C[C@@H](OC(C)=O)C1` (stereo partly drawn) [(24), 1,3-Di-O-acetyl-1,25-dihydroxy-20-cyclopropyl-23-yne-19-nor-cholecalciferol], which IC50 [1] is on record?
Answer: Its IC50 is 0.802 nM.

Question: And the MTD at 4 days [4]?
Answer: Its MTD at 4 days is 100 µg/kg.

Question: With `CC(=O)OC1C/C(=C/C=C2\CCC[C@@]3(C)C2CCC3C2(CC#CC(OC(C)=O)(C(F)(F)F)C(F)(F)F)CC2)C[C@@H](OC(C)=O)C1` (stereo partly drawn) [(26), 1,3,25-Tri-O-acetyl-1,25-dihydroxy-20-cyclopropyl-23-yne-26,27-hexafluoro-19-nor-cholecalciferol] as the molecule, how does the “MTD (mice)” value (female C57BL/6 mice) read?
Answer: Its value is 10 µg/kg.

Question: With `CC(=O)OC1C/C(=C/C=C2\CCC[C@@]3(C)C2CCC3C2(CC#CC(O)(C(F)(F)F)C(F)(F)F)CC2)C[C@@H](OC(C)=O)C1` (stereo partly drawn) [(27), 1,3-Di-O-acetyl-1,25-dihydroxy-20-cyclopropyl-23-yne-26,27-hexafluoro-19-nor-cholecalciferol] as the molecule, how does the “MTD (mice)” value (female C57BL/6 mice) read?
Answer: The value was 10 µg/kg.

Question: With `C=C1/C(=C\C=C2/CCC[C@@]3(C)C2CCC3C2(CC#CC(C)(C)O)CC2)CC(OC(C)=O)C[C@@H]1OC(C)=O` (stereo partly drawn) [(29), 1,3-Di-O-acetyl-1,25-dihydroxy-20-cyclopropyl-23-yne-cholecalciferol] as the molecule, how does the “MTD (mice)” value (female C57BL/6 mice) read?
Answer: Its value is 30 µg/kg.

Question: For `CC(=O)OC1C/C(=C/C=C2\CCC[C@@]3(C)C2CCC3C2(C/C=C/C(O)(C(F)(F)F)C(F)(F)F)CC2)C[C@@H](OC(C)=O)C1` (stereo partly drawn) [(31), 1,3-Di-O-acetyl-1,25-dihydroxy-20-cyclopropyl-23E-ene-26,27-hexafluoro-19-nor-cholecalciferol], which “MTD (mice)” value (female C57BL/6 mice) is on record?
Answer: Its value is 0.3 µg/kg.

Question: With `CC(=O)OC1C/C(=C/C=C2\CCC[C@@]3(C)C2CCC3C2(C/C=C\C(O)(C(F)(F)F)C(F)(F)F)CC2)C[C@@H](OC(C)=O)C1` (stereo partly drawn) [(33), 1,3-Di-O-acetyl-1,25-dihydroxy-20-cyclopropyl-23Z-ene-26,27-hexafluoro-19-nor-cholecalciferol] as the molecule, how does the IC50 [1] read?
Answer: The IC50 was 0.099 nM.

Question: What about the MTD at 4 days [4] of the same molecule?
Answer: The MTD at 4 days was 10 µg/kg.

Question: For `CC(=O)OC1C/C(=C/C=C2\CCC[C@]3(C)C(C4(CCCC(C)(C)O)CC4)=CCC23)C[C@@H](OC(C)=O)C1` (stereo partly drawn) [(37), 1,3-Di-O-acetyl-1α,25-dihydroxy-16-ene-20-cyclopropyl-19-nor-cholecalciferol], which “MTD (mice)” value (female C57BL/6 mice) is on record?
Answer: Its value is 10 µg/kg.

Question: For `C=C1/C(=C\C=C2/CCC[C@]3(C)C(C4(CCCC(C)(C)O)CC4)=CCC23)CC(OC(C)=O)C[C@@H]1OC(C)=O` (stereo partly drawn) [(39), 1,3-Di-O-acetyl-1α,25-hydroxy-16-ene-20-cyclopropyl-cholecalciferol], which “MTD (mice)” value (female C57BL/6 mice) is on record?
Answer: The value was 3 µg/kg.

Question: Which “MTD (mice)” value (female C57BL/6 mice) does the source give for `C=C1/C(=C\C=C2/CCC[C@@]3(C)C2CCC3C(C)CC#CC(C)(C)O)CC(OC(C)=O)C[C@@H]1OC(C)=O` (stereo partly drawn) [(41), 1,3-Di-O-acetyl-1,25-dihydroxy-23-yne-cholecalciferol] here?
Answer: The value was 1 µg/kg.

Question: With `C=C1/C(=C\C=C2/CCC[C@@]3(C)C2CCC3C2(CCCC(C)(C)O)CC2)C[C@@H](OC(C)=O)C[C@@H]1OC(C)=O` (stereo partly drawn) [Compound (35), 1,3-Di-O-acetyl-1,25-dihydroxy-20-cyclopropyl-cholecalciferol] as the molecule, how does the IC50 [1] read?
Answer: The IC50 was 0.0027 nM.

Question: What about the “Inhibition of specific T cell proliferation and T cell polarization” value [2] of the same molecule?
Answer: Its value is “potent”.

Question: And the IFN-g production ([2]; therapeutic administration)?
Answer: Its IFN-g production is “not”.

Question: And the IL-17 production ([2]; therapeutic administration)?
Answer: The IL-17 production was “markedly inhibited”.

Question: What about the “Prevention of EAU” value ([3]; Compound A 10 μg/kg orally, listed as Compound A) of the same molecule?
Answer: Its value is “can prevent EAU; also recorded: capable of preventing”.

Question: And the “Inhibition of EAU development, therapeutic treatment” value ([3]; treatment started 7 days after immunization, listed as Compound A)?
Answer: Its value is “could inhibit EAU development; also recorded: treating EAU”.

Question: And the MTD at 4 days [4]?
Answer: The MTD at 4 days was 30 µg/kg.
